Laboratory results reported in patent publication US11718592B2, “Oxadiazole derivative” (Sumitomo Pharma Co., Ltd., priority 2020, dated 2023).
Read-outs that look alike come from different tables or passages of the source.

Assays:
[1] = system: GABA(A) receptors; test: Evaluation of the potentiating effect on GABA(A) receptors (electrophysiology, GABA(A) receptor expressing cells); type: cell-based; details: for The potentiating effect on GABA(A) receptors EC20: concentration giving 20% increase of the current generated by 2 μM GABA; for Inhibition rate to the increased electric current by adding flumazenil: 2 μM GABA and test compound with 10 μM flumazenil
Method: Using GABA(A) receptor expressing cells prepared according to Guideline for Generation of Stable Cell Lines (website of Lonza Japan; Non-patent Literature 4), the present test is done for evaluating the potentiating effect of a drug on GABA(A) receptors based on the electric current raised by GABA. The GABA(A) receptor expressing cells were used in electrophysiological study, wherein the electric current was measured when 2 μM GABA solution and then a mixture of 2 μM GABA and the test compound were added to the cells. […] In addition, the electric current generated by a mixture of 2 μM GABA solution and the test compound with 10 μM flumazenil was measured, and the inhibition rate for the electric current by adding flumazenil was calculated compared to the electric current obtained in the absence of flumazenil.

[2] = system: Slc: ddy male mice; details: mouse, in vivo, po, 1 h
Method: The present test is a test for evaluating whether the test compound may disturb coordinated movement or not. Rotarod is an apparatus equipped with a rotating columnar bar whose diameter is 4 cm, in which a mouse is made to walk on the rotating bar, and the coordinated movement is evaluated from the result of walking (can walk or cannot walk). Slc: ddy male mice (purchased from Japan SLC, Inc., body weight: 20-30 g) were trained 3 hours before the test starts so that they could walk on a rotarod apparatus rotating with a speed of 12 rotations per minute for 5 minutes without falling. Only the mice which can walk in the training are used in the test. The test compound was orally administered to a group consisting of 5 mice. […] To control mice, 0.5% methylcellulose solution was administered as test compound, and the same test was also done. The coordinated movement was evaluated with the average of the five mice's walking time (second).

[3] = system: BALB/c-Scn1a<+/−> mice; test: Anticonvulsant effect in mouse model of Dravet syndrome with febrile seizures; type: in vivo; details: oral; for Difference of the threshold temperature of convulsion from that of the control group: at the dose for anticonvulsive effect, hyperthermia 50 minutes after dosing; for Dose for anticonvulsive effect: dose needed to raise the threshold body temperature for inducing febrile seizures significantly compared with the control group
Description: This is a test for evaluating the anticonvulsant effect for febrile seizures of the test compounds in a mouse model of Dravet syndrome. In this test, BALB/c-Scn1a<+/−> mice were used (catalog number: RBRC06422; they are available from RIKEN BioResource Research Center via the National BioResource Project). The present mouse model having a mutation in a responsible gene for Dravet syndrome, Scn1A, presents with symptoms similar to febrile seizures caused by hyperthermia which is a symptom in a patient suffering from Dravet syndrome, and can be used as an animal model of spontaneous Dravet syndrome (for reference: the Japan Epilepsy Research Foundation, Annual Report 2015: 26: 69-76). To male mice model of Dravet syndrome (one group: 5-8 mice, body weight: 20-30 g) were orally administered the test compound. 50 minutes later, the mice were put in a chamber warmed with hot bath to evoke hyperthermia, and observed about the development of febrile seizures. Immediately after febrile seizure was developed, the rectal temperature was measured and used as the threshold body temperature for inducing febrile seizures.

Structure (SMILES) | The potentiating effect on GABA(A) receptors EC20 [1] | average of the five mice's walking time ([2]; 100 mg/kg) | Difference of the threshold temperature of convulsion from that of the control group [3] | Dose for anticonvulsive effect [3] | Inhibition rate to the increased electric current by adding flumazenil [1] | average of the five mice's walking time ([2]; 50 mg/kg) | inhibition of the potentiating effect on GABA(A) receptors with flumazenil (in words) ([1]; flumazenil, benzodiazepine antagonist)
CC(C)(C(N)=O)c1nc(-c2ccc(F)cc2)no1 [Example 1, 2-[3-(4-Fluorophenyl)-1,2,4-oxadiazol-5-yl]-2-methylpropanamide] | 55 µM | 180 s |  |  |  |  | 
CC(C)(C(N)=O)c1nc(-c2ccc(Cl)cc2)no1 [Example 2, 2-[3-(4-chlorophenyl)-1,2,4-oxadiazol-5-yl]-2-methylpropanamide] | 29 µM | 180 s | 0.6 °C | 50 mg/kg | <0% |  | 
CC(C)(C(N)=O)c1nc(-c2ccc(Br)cc2)no1 [Example 3, 2-[3-(4-bromophenyl)-1,2,4-oxadiazol-5-yl]-2-methylpropanamide] | 29 µM | 180 s | 0.7 °C | 100 mg/kg | <0% |  | 
NC(=O)C1(c2nc(-c3ccc(F)cc3)no2)CC1 [Example 4, 1-[3-(4-fluorophenyl)-1,2,4-oxadiazol-5-yl]cyclopropane-1-carboxamide] | >100 µM | 180 s |  |  |  |  | 
NC(=O)C1(c2nc(-c3ccc(Cl)cc3)no2)CC1 [Example 5, 1-[3-(4-chlorophenyl)-1,2,4-oxadiazol-5-yl]cyclopropane-1-carboxamide] | >300 µM | 180 s |  |  |  |  | 
NC(=O)C1(c2nc(-c3ccc(Cl)cc3)no2)CC(F)C1 (centres unmarked) [Example 6, 1-[3-(4-chlorophenyl)-1,2,4-oxadiazol-5-yl]-3-fluorocyclobutane-1-carboxamide] | 3.3 µM | 180 s |  |  |  |  | 
NC(=O)C1(c2nc(-c3ccc(Cl)cc3)no2)CC(F)(F)C1 [Example 7, 1-[3-(4-chlorophenyl)-1,2,4-oxadiazol-5-yl]-3,3-difluorocyclobutane-1-carboxamide] | 5.4 µM | 180 s |  |  |  |  | 
NC(=O)C1(c2nc(-c3ccc(Cl)cc3)no2)CCC1 [Example 8, 1-[3-(4-chlorophenyl)-1,2,4-oxadiazol-5-yl]cyclobutane-1-carboxamide] | 3.2 µM | 180 s |  |  |  |  | 
NC(=O)C1(c2nc(-c3ccc(Cl)cc3)no2)CCCC1 [Example 9, 1-[3-(4-chlorophenyl)-1,2,4-oxadiazol-5-yl]cyclopentane-1-carboxamide] | 2.7 µM | 180 s |  |  |  |  | 
NC(=O)C1(c2nc(-c3ccc(F)cc3)no2)CCOCC1 [Example 10, 4-[3-(4-fluorophenyl)-1,2,4-oxadiazol-5-yl]tetrahydro-2H-pyran-4-carboxamide] | 247 µM | 180 s |  |  |  |  | 
CC(C)(C(N)=O)c1noc(-c2ccc(F)cc2)n1 [Example 12, 2-[5-(4-fluorophenyl)-1,2,4-oxadiazol-3-yl]-2-methylpropanamide] | 234 µM | 180 s |  |  |  |  | 
CC(C)(C(N)=O)c1noc(-c2ccc(Cl)cc2)n1 [Example 13, 2-[5-(4-chlorophenyl)-1,2,4-oxadiazol-3-yl]-2-methylpropanamide] | 71 µM | 180 s | 0.6 °C | 50 mg/kg | <0% |  | 
CC(C)(C(N)=O)c1noc(-c2ccc(Br)cc2)n1 [Example 14, 2-[5-(4-bromophenyl)-1,2,4-oxadiazol-3-yl]-2-methylpropanamide] | 32 µM | 180 s |  |  |  |  | 
CC(C)(C(N)=O)c1nnc(-c2ccc(Cl)cc2)o1 [Example 15, 2-[5-(4-chlorophenyl)-1,3,4-oxadiazol-2-yl]-2-methylpropanamide] | >300 µM | 180 s |  |  |  |  | 
CC(C)(c1nc(-c2ccc(F)cc2)no1)S(N)(=O)=O [Example 17, 2-[3-(4-Fluorophenyl)-1,2,4-oxadiazol-5-yl]propane-2-sulfonamide] | 45 µM | 180 s |  |  |  |  | 
CC(C)(c1nc(-c2ccc(Cl)cc2)no1)S(N)(=O)=O [Example 18, 2-[3-(4-chlorophenyl)-1,2,4-oxadiazol-5-yl]propane-2-sulfonamide] | 37 µM | 180 s |  |  | <0% |  | 
CC(C)(c1nc(-c2ccc(Br)cc2)no1)S(N)(=O)=O [Example 19, 2-[3-(4-bromophenyl)-1,2,4-oxadiazol-5-yl]propane-2-sulfonamide] | 34 µM | 180 s |  |  |  |  | 
CC(C)(c1noc(-c2ccc(Cl)cc2)n1)S(N)(=O)=O [Example 20, 2-[5-(4-chlorophenyl)-1,2,4-oxadiazol-3-yl]propane-2-sulfonamide] | 20 µM | 180 s | 0.6 °C | 100 mg/kg | 55% |  | 
CC(C)(c1noc(-c2ccc(Br)cc2)n1)S(N)(=O)=O [Example 21, 2-[5-(4-bromophenyl)-1,2,4-oxadiazol-3-yl]propane-2-sulfonamide] | 9.6 µM | 180 s |  |  |  |  | 
CC(C)(c1nnc(-c2ccc(F)cc2)o1)S(N)(=O)=O [Example 22, 2-[5-(4-fluorophenyl)-1,3,4-oxadiazol-2-yl]propane-2-sulfonamide] | >300 µM | 180 s |  |  |  |  | 
CC(C)(c1nnc(-c2ccc(Cl)cc2)o1)S(N)(=O)=O [Example 23, 2-[5-(4-chlorophenyl)-1,3,4-oxadiazol-2-yl]propane-2-sulfonamide] | 190 µM | 180 s |  |  |  |  | 
CC(C)(c1nnc(-c2ccc(Br)cc2)o1)S(N)(=O)=O [Example 24, 2-[5-(4-bromophenyl)-1,3,4-oxadiazol-2-yl]propane-2-sulfonamide] | 86 µM | 180 s |  |  |  |  | 
CN1C(=O)CCC1c1nc(-c2ccc(F)cc2F)no1 (centres unmarked) [Example 26, 5-[3-(2,4-difluorophenyl)-1,2,4-oxadiazol-5-yl]-1-methylpyrrolidin-2-one] | >100 µM |  |  |  |  | 180 s | 
CN1C(=O)CCC1c1nc(-c2ccc(F)c(F)c2)no1 (centres unmarked) [Example 27, 5-[3-(3,4-difluorophenyl)-1,2,4-oxadiazol-5-yl]-1-methylpyrrolidin-2-one] | 39 µM |  |  |  | <0% | 180 s | 
CN1C(=O)CC(=O)N(c2ccccc2)c2cc(Cl)ccc21 [clobazam, reference compound] | 0.34 µM |  |  |  | 88% |  | strongly inhibited
